Laboratory results as given in patent US20240325437A1, “METHODS AND COMPOSITIONS FOR USE IN IMPROVING ADAPTIVE IMMUNITY IN THE ELDERLY POPULATION” (Technion Research & Development Foundation Limited, priority 2023, published 2024).
Entries after “also recorded” stand apart in the source; their conditions may differ. Like-named read-outs stand apart in the source and are kept apart here.

Columns and labels:
[1] = tested on: CD3+ T cells derived from young mice; assay: Viability of young T cells cultured with heme or spleen extract (Zombie, flow cytometry); type: cell-based, mouse; conditions: for viability of T cells: with and without agent
From the text: (§1) T cell isolation and culture. T cells were harvested from mice spleens and/or lymph nodes (inguinal, axillary, brachial, mandibular, and jejunal), and purified by magnetic separation. Depending on the specific experiment, either bulk CD3^+ T cells or bulk CD3^+CD4^+ T cells or pure naïve (CD3^+CD4^+CD62L^+ CD441^lo CD25^−) T cells were purified using commercially available kits (StemCell, 19765A, 19852A, 19851A), following the manufacturer instructions. The protocol for isolating pure naïve T cells from aged mice was modified, as additional antibodies were added to the initial antibody cocktail to overcome changes in T cell population composition in the aged. Specifically, biotinylated anti-mouse/human CD44 (BioLegend, IM7), and biotinylated anti-mouse CD25 (miltenyi 130-123-860, REA568), were added to the company's premade antibody cocktail for negative selection of lymphocytes. Furthermore, the present inventors performed a step of positive selection of CD62L^+ naïve T cells, using anti-mouse CD62L microbeads (miltenyi, 130-049-701) and magnetic columns (miltenyi, 130-042-201). Primary T cells were cultured at 37° C. and 5% CO2 in RPMI media, supplemented with: 10% FBS, 10 mM Hepes, penicillin/streptomycin, and 0.035% beta-mercaptoethanol. For activation, cells were cultured on plates pre-coated (overnight at 4° C.) with anti-CD3 (2 μg/mL; clone 145-2C11, BioXCell) and anti-CD28 (4 μg/mL, clone 37.51; BioXCell). Resting cells were supplemented with 5 ng/ml recombinant murine IL-7 (PEPROTECH, 217-17). In some experiments, cell cultures were supplemented with hemin chloride (cayman, 16487), ammonium iron (III) citrate (thermos scientific, A11199.30), BSA (Sigma-Aldrich, A9647), and spleen extract, at different concentrations, as indicated in relevant experiments.
Collection of a interstitial fluid-enriched fraction (referred to as spleen extract; SE). Spleens from young or aged mice were harvested, and gently dissociated ontop of a […] cell strainer, in 5 mL PBS or RPMI, 5 min centrifugation at 1350 RPM to separate the cellular pellet from the fluidic fraction, enriched with interstitial components.
(§2) Flow cytometry. […] Intracellular ferrous iron was measured using FerroOrange (Dojindo F374).

aged T cells [2] = assay: Survival of aged T cells ex vivo; type: cell-based, mouse; conditions: aged T cells (not shown)
Experimental: (§3) Flow cytometry. For cell-surface staining, cultured T cells or freshly isolated T cells were resuspended in a separation buffer (PBS containing 2% FBS and 2 mM EDTA) and incubated for 20 min, on ice, with an antibody mix, supplemented purified anti-mouse CD16/32 (Biolegend, clone 93). For intracellular staining, True-Nuclear™ Transcription Factor Buffer Set (Biolegend, 424401) was used, following the manufacturer's protocol. […] Cell viability was assessed by Zombie violet or Zombie NIR™ Fixable Viability Kits (423114, 423105, biolegend). Cell proliferation was assessed by cell trace violet proliferation kit (C34557, Invitrogen). Lysosomal activity was determined using a lysosomal intracellular activity assay kit (ab234622) according to the manufacturer's instructions. Intracellular ferrous iron was measured using FerroOrange (Dojindo F374). Cells were incubated with […] of FerroOrange in HBSS at 37° C. for 40 minutes, and analyzed by flow cytometry. For Lysotracker staining, cells were incubated with 62.5 nM of lysotracker deep red (Invitrogen L12492) in HBSS at 37° C. for 40 minutes and analyzed by flow cytometry. All data were collected on the Attune NxT Flow Cytometer (Thermo Fisher) and analyzed using FlowJo (BD).

[3] = tested on: CD3+ T cells derived from young mice; assay: Proliferation of young T cells stimulated ex vivo with anti-CD3/anti-CD28 (cell trace violet); type: cell-based, mouse
From the text: as §1, §2

aged T cells [4] = assay: Proliferation of aged T cells activated ex vivo (CellTrace Violet); type: cell-based, mouse; conditions: for aged T cells proliferation: aged T cells activated ex vivo with and without agent
From the text: as §1, §2

aged T cells [5] = assay: Labile iron (FerroOrange) in aged T cells; type: cell-based, mouse
Experimental: as §2
(§4) Functional assays and intracellular ferrous iron staining. Intracellular ferrous iron was measured using FerroOrange (Dojindo, F374). […] All assays were analyzed by flow cytometry.

[6] = tested on: CD3+ T cells derived from the spleen of young and aged mice; assay: Ferroptosis tolerance: viability of young and aged T cells treated with RSL; type: cell-based, mouse; conditions: increasing doses of RSL, 48 hrs, young vs aged T cells; listed as RSL
From the text: (§5) T cell isolation and culture. T cells were harvested from mice spleens and/or lymph nodes (inguinal, axillary, brachial, mandibular, and jejunal), and purified by magnetic separation. Depending on the specific experiment, either bulk CD3^+ T cells or bulk CD3^+CD4^+ T cells or pure naïve (CD3^+CD4^+CD62L^+ CD441^lo CD25^−) T cells were purified using commercially available kits (StemCell, 19765A, 19852A, 19851A), following the manufacturer instructions. The protocol for isolating pure naïve T cells from aged mice was modified, as additional antibodies were added to the initial antibody cocktail to overcome changes in T cell population composition in the aged. Specifically, biotinylated anti-mouse/human CD44 (BioLegend, IM7), and biotinylated anti-mouse CD25 (miltenyi 130-123-860, REA568), were added to the company's premade antibody cocktail for negative selection of lymphocytes. Furthermore, the present inventors performed a step of positive selection of CD62L^+ naïve T cells, using anti-mouse CD62L microbeads (miltenyi, 130-049-701) and magnetic columns (miltenyi, 130-042-201). […]
as §2
Albumin is the most abundant heme binding protein in the serum. […] The present inventors hypothesized that the unique protein signature measured in aged T cells (FIG. 2H) allows them to survive this hostile microenvironment. […]

[7] = tested on: CD4+ and CD8+ T cells derived from the aged spleen; assay: Ferroptosis resistance to RSL3 of T cells from aged spleen after adoptive transfer; type: cell-based, mouse; conditions: CD4+ vs CD8+ T cells from aged spleen, TdTomato+ and TdTomato−
From the text: Adoptive T cell transfer. Young T cells were isolated from spleens of young OTII td-tomato transgenic mice (8-12 weeks-old) by magnetic isolation (StemCell), as described above. […] Two weeks following cell transfer, mice were euthanized and spleen and lymph nodes (inguinal, axillary, brachial, mandibular, and jejunal) were extracted for further analysis.
The present inventors hypothesized that ferroptosis resistance was accomplished by maintaining low cellular iron levels. To test this, FerroOrange was employed, a fluorescent probe that interacts with cellular ferrous ion (Fe^+2), to measure changes in labile iron in T cells following activation. In young T cells, labile iron pools increased as early as 9 hr post-activation and continued rising until 72 hrs (FIG. 5A). Iron levels varied across different populations as Ferro-Orange fluorescence intensity was higher in CD8^+ compared to CD4^+ T cells, pre- and post-activation (FIG. 5B). […] A major pathway for increasing cellular iron is the uptake of transferrin-bound iron, mediated by the transferrin receptor (TFR1), also known as CD71. […] In agreement with the observed differences in labile iron, CD8^+ T cells expressed higher levels of CD71 compared to CD4^+ T cells (FIG. 5F). […]

aged T cells [8] = conditions: 24 hr post-activation
Experimental: Functional assays and intracellular ferrous iron staining. Intracellular ferrous iron was measured using FerroOrange (Dojindo, F374). Following extracellular staining, cells were incubated with 1 μM of FerroOrange in HBSS at 37° C. for 30 minutes in a 5% CO2 incubator, and immediately taken for analysis. For Mitochondrial ferrous iron measurement, cells were incubated with 5 μM of Mito-FerroGreen (Dojindo, M489) in HBSS at 37° C. for 30 minutes in a 5% CO2 incubator, washed twice. […] All assays were analyzed by flow cytometry.

[9] = tested on: T cells response to vaccination; conditions: cited from earlier work
[10] = tested on: OVA-specific OTI and OTII T cells in aged recipients; conditions: aged mice, OVA/Alum i.p., FAC i.v. on days 1 and 3, spleen on day 5
Experimental: Control mice were injected with saline. […] Control mice received saline.

aged T cells [11] = tested on: aged T cells
Experimental: as §3

[12] = tested on: T cells derived from young mice; assay: Immunophenotyping of young T cells after ex vivo incubation with heme; type: cell-based, mouse; conditions: young T cells incubated with heme, without TCR-mediated stimulation
From the text: as §5, with “130-042-201). Primary T cells were cultured at 37° C. and 5% CO2 in RPMI media, supplemented with: 10% FBS, 10 mM Hepes, penicillin/streptomycin, and 0.035% beta-mercaptoethanol.” for “130-042-201).”
as §2

[13] = tested on: CD3+ T cells derived from young mice; assay: Expression of ferritin, HO-1 and CD39 in young T cells by flow cytometry; type: cell-based, mouse; conditions: young T cells exposed to heme
From the text: as §1, §2

T cells [14] = assay: Lysosomal intracellular activity assay; type: cell-based, mouse; conditions: T cells activated in the presence of heme
T cells [15] = assay: Lysosomal mass (lysotracker; flow cytometry and fluorescent microscopy); type: cell-based, mouse; conditions: T cells +/- activation +/- heme
Experimental: as §2
Fluorescent microscopy. Cells were stained simultaneously with lysotracker deep red and FerroOrange in HBSS as described above, and imaged using Leica DMI8 inverted fluorescent microscope.

resting young T cells = assay: FOXO1 levels in resting young T cells by flow cytometry; type: cell-based, mouse; conditions: resting young T cells incubated ex vivo for 4-48 hr
Experimental: as §2
Lysosomal dysfunction results in accumulation of late endosomes, also referred to as multi vesicular bodies (MVBs), that are identified by expression of CD63. […] FOXO1 regulates expression of TFEB, the master regulator of lysosomal biogenesis^17. Moreover, FOXO1 expression is critical for maintaining T cell quiescence, and its deficiency induces T cell senescence^18. The present inventors hypothesized that the microenvironment in the aged spleen suppressed FOXO1 expression, thus inducing T cell priming (FIG. 7E-G) and dysregulates lysosomal biogenesis and activity. To test this hypothesis, FOXO1 levels were quantified in resting young T cells that were incubated ex vivo with either heme or SE.

young T cells [16] = assay: Lipid peroxidation (BODIPY 581/591 C11) in young T cells; type: cell-based, mouse; conditions: T cells exposed to heme
T cells [17] = assay: CD63 expression on T cells by flow cytometry; type: cell-based, mouse; conditions: T cells cultured with heme at different concentrations
Experimental: as §2

young T cells [18] = assay: Cellular ROS (DCFDA) in young T cells; type: cell-based, mouse; conditions: T cells exposed to heme, 48 hr
Experimental: as §4

## CC(=O)N(O)CCCCCNC(=O)CCC(=O)N(O)CCCCCNC(=O)CCC(=O)N(O)CCCCCN [DFO]
[1]; young T cells cultured with spleen extract plus DFO
  cell viability: partially rescued cell viability

## CC(=O)N[C@@H](CS)C(=O)O [NAC, N-acetyl cysteine]
Aged T cells [2]
  aged T cells survival: neither BSA nor NAC improved
[3]; young T cells activated 48 hr in the presence of SE, with and without agent
  proliferation: improved
[3]; young T cells activated 48 hr in the presence of heme, with and without agent
  proliferation: improved
Aged T cells [4]
  aged T cells proliferation: neither BSA nor NAC improved
[1]; young T cells activated 48 hr in the presence of SE
  viability of T cells: improved cell viability
[1]; young T cells activated 48 hr in the presence of heme
  viability of T cells: improved cell viability

## C=C[C@H]1C[N@@]2CC[C@H]1C[C@H]2[C@H](O)c1ccnc2ccc(OC)cc12 [Quinine, quinine]
Aged T cells [4]
  aged T cells proliferation: rescued their proliferative capacity
Aged T cells [5]; aged CD3+ T cells cultured with quinine (15 uM)
  labile iron pools (Ferro-Orange): increases labile iron pools

## COC(=O)c1ccc([C@@H]2c3[nH]c4ccccc4c3C[C@@H](C(=O)OC)N2C(=O)CCl)cc1 [RSL3]
[6]
  cell viability after RSL (ferroptosis tolerance): aged T cells survived even high levels of the drug; also recorded: aged T cells are significantly more tolerant to ferroptosis than young T cells
[7]
  resistance to RSL3-induced ferroptosis: more resistant to RSL3-induced ferroptosis

## N-methyl protoporphyrin IX
Aged T cells [4]; aged T cells supplemented with FAC plus FECH inhibitor
  proliferation: prevented the alleviating effect on proliferation

## ferric ammonium citrate [FAC]
Aged T cells [8]
  mitochondrial iron pools: replenished mitochondrial iron pools
[9]; hepcidin-treated mice, in vivo administration of FAC
  T cells response to vaccination: rescued
Aged T cells [4]
  aged T cells proliferation: significant improvement in proliferative capacity
Aged T cells [5]; aged T cells activated ex vivo in the presence of FAC
  labile iron pools (FerroOrange): increased labile iron pools
[10]
  proliferation of antigen specific CD4+ T cells (OTII): improved proliferation
  proliferation of antigen specific CD8+ T cells (OTI): not affected
Aged T cells [11]; FAC-supplemented aged CD8+ T cells (not shown)
  CD71 expression: the shift in CD71 expression was smaller
Aged T cells [11]; FAC-supplemented aged T cells
  CD71 expression: downregulation of CD71

## hemin chloride [heme]
[12]
  T cell differentiation / naïve T cell pool: sufficient to induce T cell differentiation and deplete the naïve T cell pool
[13]
  CD39 expression: also induced; also recorded: sufficient to induce CD39
  expression of HO-1: sufficient to induce expression
  expression of ferritin: sufficient to induce expression
[13]; listed as Heme
  CD39 expression: induces expression
  expression of HO-1: induces expression
  expression of ferritin: induces expression
T cells [14]
  lysosomal activity: suppressed
[3]; young T cells activated 48 hr, exposure to heme or SE alone
  proliferation: completely blocked
T cells [15]
  lysosomal mass: downregulated lysosomal mass
Resting young T cells
  FOXO1 levels: dropped within 4 hr and continued to drop during the 48 hr of incubation
Young T cells [16]
  lipid peroxidation: large induction in lipid peroxidation
T cells [17]
  CD63 expression: induced CD63 expression, in a dose-dependent manner
[1]; resting young CD3+ T cells with IL-7, heme for 48 hr
  cell viability: significantly reduced cell viability, in a dose-dependent manner
[1]; resting young CD3+ T cells with IL-7, heme for 48 hr, listed as Heme
  cell viability: reduces cell viability
Young T cells [18]
  increase in cellular ROS: ~2 fold

## hepcidin
[9]; mice treated with hepcidin
  T cells response to vaccination: diminished

## holo-transferrin: iron saturated transferrin
Aged T cells [4]
  aged T cells proliferation: significant improvement in proliferative capacity
